Patent publication US20260176265A1 (Cancer Research Technology Limited, priority 2022, published 2026)

What was measured:
[1] = biological target: T1, Phospho-EGFR (Tyr1068) in H1975 C797S cells (Homo sapiens, UniProt P00533, C797S/L858R/T790M); assay: HTRF pEGFR/total EGFR assay in H1975 C797S cells; assay type: cell-based; details: H1975 C797S cells (CRISPR), compound 3 hours, ratio pEGFR/total EGFR
T1 construct: endogenous in cells; host or cells: H1975 C797S (CRISPR-edited in house from ATCC CRL-5908)
Method in brief: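 Phospho-EGFR (Tyr1068) and total EGFR were measured by HTRF (665 and 620 nm) in lysates of NGS-validated H1975 EGFR C797S cells. Cells were dosed for 3 h in duplicate, 0.1% DMSO final. Read-out is the pEGFR/total EGFR ratio relative to the 0 uM control, as percent.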

[2] = biological target: CtermHisTag-mEGFR Triple Mutant - C797S, L858R, T790M (Homo sapiens, UniProt P00533, C797S/L858R/T790M); assay: TR-FRET probe displacement assay, EGFR triple mutant; assay type: binding; details: T790M 1.25 nM, probe 100 nM, 30 mins room temperature
Method in brief: (§1)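 Probe displacement from His-tagged wild-type or triple-mutant EGFR measured by TR-FRET (excitation 337 nm, emission 490/520 nm). Compounds spanned final concentrations from 3 to 100000 nM over ten points; technical replicates, repeated twice biologically.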

[3] = biological target: T2, Phospho-EGFR (Tyr1068) in H1975 cells (Homo sapiens, UniProt P00533, L858R/T790M); assay: HTRF pEGFR/total EGFR assay in H1975 cells; assay type: cell-based; details: compound 3 hours, ratio pEGFR/total EGFR
T2 construct: host or cells: H1975
Method in brief: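 H1975 cells (EGFR L858R/T790M) adhered 24 h, then compound-treated for 3 h in duplicate, 0.1% DMSO final. Lysates read by HTRF at 665/620 nm for phospho-Tyr1068 and total EGFR. Value is pEGFR/total EGFR ratio as % of 0 uM control.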

[4] = biological target: T3, Phospho-EGFR (Tyr1068) in A431 cells (Homo sapiens, UniProt P00533); assay: HTRF pEGFR/total EGFR assay in A431 cells (EGF stimulated); assay type: cell-based; details: compound 2.5 hours then 100 ng/ml EGF 30 mins, ratio pEGFR/total EGFR
T3 construct: endogenous in cells; host or cells: A431
Method in brief: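 HTRF readout (665 and 620 nm) of Tyr1068-phosphorylated versus total EGFR in lysed A431 cells, expressed as ratio relative to 0uM control (%). Compound exposure 2.5 h in duplicate at 0.1% DMSO, with 100 ng/ml EGF added for 30 min.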

[5] = biological target: CtermHisTag-mEGFR Wild type (Homo sapiens, UniProt P00533); assay: TR-FRET probe displacement assay, EGFR wild type; assay type: binding; details: EGFR wild type 1.25 nM, probe 100 nM, 30 mins room temperature
Method in brief: as §1

CtermHisTag-mEGFR Wild type, sequence (P00533 25-1210): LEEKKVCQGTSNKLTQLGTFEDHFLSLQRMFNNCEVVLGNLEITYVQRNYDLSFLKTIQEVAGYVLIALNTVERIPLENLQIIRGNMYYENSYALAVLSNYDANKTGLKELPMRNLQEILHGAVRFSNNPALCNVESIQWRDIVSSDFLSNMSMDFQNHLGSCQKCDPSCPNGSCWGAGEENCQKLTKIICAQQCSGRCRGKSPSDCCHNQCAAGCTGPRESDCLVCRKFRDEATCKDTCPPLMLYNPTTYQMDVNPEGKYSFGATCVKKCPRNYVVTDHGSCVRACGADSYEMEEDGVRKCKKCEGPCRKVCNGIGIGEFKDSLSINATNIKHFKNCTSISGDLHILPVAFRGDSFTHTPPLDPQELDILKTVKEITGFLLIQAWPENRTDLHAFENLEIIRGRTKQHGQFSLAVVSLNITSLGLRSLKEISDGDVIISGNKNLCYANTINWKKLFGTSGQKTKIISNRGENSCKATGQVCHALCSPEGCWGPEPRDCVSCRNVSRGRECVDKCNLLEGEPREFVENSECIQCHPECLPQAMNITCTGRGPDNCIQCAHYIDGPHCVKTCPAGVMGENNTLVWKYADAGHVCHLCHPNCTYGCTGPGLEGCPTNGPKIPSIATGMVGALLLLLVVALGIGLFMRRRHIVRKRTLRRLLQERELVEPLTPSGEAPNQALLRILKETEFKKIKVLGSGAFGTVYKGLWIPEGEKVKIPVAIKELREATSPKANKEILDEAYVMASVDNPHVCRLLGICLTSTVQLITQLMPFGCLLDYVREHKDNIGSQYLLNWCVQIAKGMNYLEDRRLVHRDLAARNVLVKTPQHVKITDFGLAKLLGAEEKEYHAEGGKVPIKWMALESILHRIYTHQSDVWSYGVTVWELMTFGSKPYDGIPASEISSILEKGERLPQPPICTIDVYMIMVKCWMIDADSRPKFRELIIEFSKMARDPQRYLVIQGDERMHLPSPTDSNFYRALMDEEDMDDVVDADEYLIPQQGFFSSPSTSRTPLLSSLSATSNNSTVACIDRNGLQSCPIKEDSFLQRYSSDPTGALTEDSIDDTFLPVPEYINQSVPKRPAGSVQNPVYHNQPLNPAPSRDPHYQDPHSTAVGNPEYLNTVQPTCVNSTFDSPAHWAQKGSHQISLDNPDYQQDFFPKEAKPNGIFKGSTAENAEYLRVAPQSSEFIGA
T3 sequence (P00533 25-1210): as above
T2 sequence (P00533 25-1210 T790M/L858R): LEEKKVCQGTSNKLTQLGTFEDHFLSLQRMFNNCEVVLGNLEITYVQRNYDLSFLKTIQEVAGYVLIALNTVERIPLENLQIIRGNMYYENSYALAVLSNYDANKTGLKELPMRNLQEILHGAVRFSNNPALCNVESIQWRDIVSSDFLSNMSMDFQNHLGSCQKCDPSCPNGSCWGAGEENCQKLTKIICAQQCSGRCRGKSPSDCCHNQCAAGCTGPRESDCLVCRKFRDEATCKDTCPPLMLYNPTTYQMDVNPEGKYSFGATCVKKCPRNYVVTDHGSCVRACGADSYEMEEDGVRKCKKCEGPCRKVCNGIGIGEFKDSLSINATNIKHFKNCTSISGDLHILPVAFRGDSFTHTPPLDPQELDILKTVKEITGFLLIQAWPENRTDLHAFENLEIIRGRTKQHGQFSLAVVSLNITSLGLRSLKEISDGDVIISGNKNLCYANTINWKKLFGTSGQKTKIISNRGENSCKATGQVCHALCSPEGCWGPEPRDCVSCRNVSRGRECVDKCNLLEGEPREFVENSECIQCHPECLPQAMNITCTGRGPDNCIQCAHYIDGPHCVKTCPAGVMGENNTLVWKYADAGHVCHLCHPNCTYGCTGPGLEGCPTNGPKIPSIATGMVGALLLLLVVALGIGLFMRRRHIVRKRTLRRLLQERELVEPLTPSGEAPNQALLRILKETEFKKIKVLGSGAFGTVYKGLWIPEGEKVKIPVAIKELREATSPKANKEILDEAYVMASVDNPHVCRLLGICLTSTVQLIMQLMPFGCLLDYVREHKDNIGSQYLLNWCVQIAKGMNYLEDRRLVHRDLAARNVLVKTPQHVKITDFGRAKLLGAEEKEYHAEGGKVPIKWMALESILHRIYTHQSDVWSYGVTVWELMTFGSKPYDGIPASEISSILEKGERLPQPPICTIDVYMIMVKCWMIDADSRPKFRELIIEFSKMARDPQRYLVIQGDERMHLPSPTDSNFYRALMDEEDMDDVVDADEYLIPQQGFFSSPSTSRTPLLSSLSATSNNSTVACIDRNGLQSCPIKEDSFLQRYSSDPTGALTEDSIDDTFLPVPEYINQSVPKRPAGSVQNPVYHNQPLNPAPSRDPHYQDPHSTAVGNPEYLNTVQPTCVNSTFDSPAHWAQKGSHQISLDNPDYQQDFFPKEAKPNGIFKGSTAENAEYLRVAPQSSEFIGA
T1 sequence (P00533 25-1210 T790M/C797S/L858R): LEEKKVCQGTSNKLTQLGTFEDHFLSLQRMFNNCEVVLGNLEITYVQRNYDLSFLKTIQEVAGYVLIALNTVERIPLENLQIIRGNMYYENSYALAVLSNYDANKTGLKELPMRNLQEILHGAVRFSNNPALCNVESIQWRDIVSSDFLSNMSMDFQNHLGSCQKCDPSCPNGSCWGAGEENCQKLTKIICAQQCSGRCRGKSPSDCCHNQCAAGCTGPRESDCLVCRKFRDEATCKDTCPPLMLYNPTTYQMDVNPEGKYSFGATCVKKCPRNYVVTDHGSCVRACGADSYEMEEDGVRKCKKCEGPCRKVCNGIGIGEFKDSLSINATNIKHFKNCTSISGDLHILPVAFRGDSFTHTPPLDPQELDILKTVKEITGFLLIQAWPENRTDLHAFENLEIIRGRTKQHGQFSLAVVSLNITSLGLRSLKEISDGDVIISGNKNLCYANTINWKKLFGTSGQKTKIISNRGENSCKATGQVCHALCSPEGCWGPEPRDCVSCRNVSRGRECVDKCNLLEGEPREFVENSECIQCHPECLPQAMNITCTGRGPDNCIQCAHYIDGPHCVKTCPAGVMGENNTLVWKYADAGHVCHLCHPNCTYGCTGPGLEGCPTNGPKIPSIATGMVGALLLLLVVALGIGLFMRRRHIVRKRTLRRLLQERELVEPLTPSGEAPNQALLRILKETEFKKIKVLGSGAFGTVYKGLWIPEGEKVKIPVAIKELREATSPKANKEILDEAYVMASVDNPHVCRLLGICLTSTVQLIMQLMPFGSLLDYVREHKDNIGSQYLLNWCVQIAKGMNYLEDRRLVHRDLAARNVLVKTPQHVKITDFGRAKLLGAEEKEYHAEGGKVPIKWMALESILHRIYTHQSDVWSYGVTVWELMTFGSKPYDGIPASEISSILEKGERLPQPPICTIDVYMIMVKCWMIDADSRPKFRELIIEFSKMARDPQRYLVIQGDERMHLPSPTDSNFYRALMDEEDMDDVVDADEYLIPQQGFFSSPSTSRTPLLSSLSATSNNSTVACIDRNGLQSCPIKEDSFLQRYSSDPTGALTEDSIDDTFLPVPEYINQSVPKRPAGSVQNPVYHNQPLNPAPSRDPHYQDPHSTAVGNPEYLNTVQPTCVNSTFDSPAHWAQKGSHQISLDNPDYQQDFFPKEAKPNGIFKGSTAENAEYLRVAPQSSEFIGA

Structure (SMILES)	IC50 [1] [µM]	IC50 [2] [µM]	IC50 [3] [µM]	IC50 [4] [µM]	IC50 [5] [µM]
C#Cc1cc(N2C(=O)N(C)CC23CCCC3)nc2nc(Nc3ccc(N(C)C(C)=O)cc3)ncc12 [Example 105, N-{4-[(5-Ethynyl-7-{3-methyl-2-oxo-1,3-diazaspiro[4.4]nonan-1-yl}pyrido[2,3-d]pyrimidin-2-yl)amino]phenyl}-N-methylacetamide]	> 3	0.1 to 1	> 3	> 3	> 10
C#Cc1cc(N2C(=O)N(C)CC23CCCC3)nc2nc(Nc3ccc(S(C)(=O)=O)cc3)ncc12 [Example 108, 1-{5-Ethynyl-2-[(4-methanesulfonylphenyl)amino]pyrido [2,3-d]pyrimidin-7-yl}-3-methyl-1,3-diazaspiro [4.4]nonan-2-one]	> 3	0.02 to 0.1	> 3	1 to 3	> 10
C#Cc1cc(N2C(=O)N(C)CC23CCCC3)nc2nc(Nc3ccc(S(=O)(=O)N(C)C)cc3)ncc12 [Example 109, 4-[(5-Ethynyl-7-{3-methyl-2-oxo-1,3-diazaspiro[4.4]nonan-1-yl}pyrido[2,3-d]pyrimidin-2-yl)amino]-N,N-dimethylbenzenesulfonamide]	> 3	0.1 to 1	> 3	1 to 3	> 10
C#Cc1cc(N2C(=O)N(C)CC23CCCC3)nc2nc(Nc3ccc(S(=O)(=O)N(C)CCN(C)C)cc3)ncc12 [Example 110, N-[2-(Dimethylamino)ethyl]-4-[(5-ethynyl-7-{3-methyl-2-oxo-1,3-diazaspiro[4.4]nonan 1-yl}pyrido[2,3-d]pyrimidin-2-yl)amino]-N-methylbenzenesulfonamide]	> 3	0.1 to 1	> 3	> 3	> 10
C#Cc1cc(N2C(=O)OCC2C2CCCC2)nc2nc(Nc3ccc(N4CCNCC4)cc3)ncc12 (stereo not shown) [Example 115, 4-Cyclopentyl-3-(5-ethynyl-2-{[4-(piperazin-1-yl)phenyl]amino}pyrido[2,3-d]pyrimidin-7-y0)-1,3-oxazolidin-2-one]	> 3	< 0.02	0.5 to 1	> 3	1 to 10
C#Cc1cc(NC(=O)NC2CCCC2)nc2nc(Nc3cccc4c3CN(C)C4)ncc12 [Example 117, 3-Cyclopentyl-1-{5-ethynyl-2-[(2-methyl-1,3-dihydroisoindol-4-yl)amino]pyrido[2,3-d]pyrimidin-7-yl}urea]	> 3	0.1 to 1	> 3	> 3	1 to 10
C#Cc1cc(NC(=O)NC2CCCC2)nc2nc(Nc3ccccc3N3CCCC(CS(C)(=O)=O)C3)ncc12 (stereo not shown) [Example 118, 3-Cyclopentyl-1-[5-ethynyl-2-({2-[3-(methanesulfonylmethyl)piperidin-1-yl]phenyl}amino)pyrido[2,3-d]pyrimidin-7-yl]urea]	> 3	1 to 50	> 3	> 3	> 10
C#Cc1cc(N(C)C(=O)N(C)C2CCCC2)nc2nc(Nc3ccc(N4CCN(C)CC4)cc3)ncc12 [Example 123, 3-Cyclopentyl-1-(5-ethynyl-2-{[4-(4-methylpiperazin-1-yl)phenyl]amino}pyrido[2,3-d]pyrimidin-7-yl)-1,3-dimethylurea]	> 3	1 to 50	> 3	> 3	> 10

Second part, the molecule after the results:

IC50 [1] [µM]	IC50 [2] [µM]	IC50 [3] [µM]	IC50 [4] [µM]	IC50 [5] [µM]	Structure (SMILES)
> 3	< 0.02	> 3	> 3	1 to 10	C#Cc1cc(N2C(=O)N(C)CC2C(C)C)nc2nc(Nc3ccc(N4CCN(C)CC4)cc3)ncc12 (stereo not shown) [Example 102, 3-(5-Ethynyl-2-{[4-(4-methylpiperazin-1-yl)phenyl]amino}pyrido[2,3-d]pyrimidin-7-yl)-4-isopropyl-1-methylmidazolidin-2-one]
< 0.5	0.02 to 0.1	< 0.5	1 to 3	< 1	C#Cc1cc(N2C(=O)N(C)CC23CCCC3)nc2nc(Nc3ccc(N4CCOCC4)cc3)ncc12 [Example 103, 1-(5-Ethynyl-2-{[4-(morpholin-4-yl)phenyl]amino}pyrido[2,3-d]pyrimidin-7-yl)-3-methyl-1,3-diazaspiro[4.4]nonan-2-one]
1 to 3	0.02 to 0.1	1 to 3	> 3	< 1	C#Cc1cc(N2C(=O)N(C)CC23CCCC3)nc2nc(Nc3ccc(N4CCN(C5COC5)CC4)cc3)ncc12 [Example 104, 1-[5-Ethynyl-2-([4-[4-(oxetan-3-yl)piperazin-1-yl]phenyl]amino)pyrido[2,3-d]pyrimidin-7-yl]-3-methyl-1,3-diazaspiro[4.4]nonan-2-one]
1 to 3	0.1 to 1	> 3	1 to 3	1 to 10	C#Cc1cc(N2C(=O)N(C)CC23CCCC3)nc2nc(Nc3ccc(N(C)C(=O)CN(C)C)cc3)ncc12 [Example 106, 2-(Dimethylamino)-N-{4-[(5-ethynyl-7-{3-methyl-2-oxo-1,3-diazaspiro[4.4]nonan-1-yl}pyrido[2,3-d]pyrimidin-2-yl)amino}phenyl]-N-methylacetamide]
1 to 3	0.1 to 1	1 to 3	> 3	1 to 10	C#Cc1cc(N2C(=O)N(C)CC23CCCC3)nc2nc(Nc3ccc(OCCN(C)C)cc3)ncc12 [Example 107]
0.5 to 1	< 0.02	0.5 to 1	> 3	1 to 10	C#Cc1cc(N2C(=O)OCC2C2CCCC2)nc2nc(Nc3ccc(N4CCN(C)CC4)cc3)ncc12 (stereo not shown) [Example 111, 4-Cyclopentyl-3-(5-ethynyl-2-{[4-(4-methylpiperazin-1-yl)phenyl]amino}pyrido[2,3-d]pyrimidin-7-yl)-1,3-oxazolidin-2-one]
0.5 to 1	< 0.02	0.5 to 1	> 3	< 1	C#Cc1cc(N2C(=O)OCC2CC2CCCC2)nc2nc(Nc3ccc(N4CCN(C)CC4)cc3)ncc12 (stereo not shown) [Example 112, 4-(Cyclopentylmethyl)-3-(5-ethynyl-2-{[4-(4-methylpiperazin-1-yl)phenyl]amino}pyrido[2,3-d]pyrimidin-7-yl)-1,3-oxazolidin-2-one]
1 to 3	0.02 to 0.1	0.5 to 1	> 3	> 10	C#Cc1cc(N2CC(C(C)C)OC2=O)nc2nc(Nc3ccc(N4CCN(C)CC4)cc3)ncc12 (stereo not shown) [Example 113, 3-(5-Ethynyl-2-{[4-(4-methylpiperazin-1-yl)phenyl]amino}pyrido[2,3-d]pyrimidin-7-yl)-5-isopropyl-1.3-oxazolidin-2-one]
0.5 to 1	< 0.02	< 0.5	1 to 3	< 1	C#Cc1cc(N2C(=O)OCC23CCCC3)nc2nc(Nc3ccc(N4CCN(C)CC4)cc3)ncc12 [Example 114, 1-(5-Ethynyl-2-{[4-(4-methylpiperazin-1-yl)phenyl]amino}pyrido[2,3-d]pyrimidin-7-yl)-3-oxa-1-azaspiro[4.4]nonan-2-one]
0.5 to 1	< 0.02	< 0.5	> 3	1 to 10	C#Cc1cc(N2C(=O)OCC2COC)nc2nc(Nc3ccc(N4CCN(C)CC4)cc3)ncc12 (stereo not shown) [Example 116, 3-(5-Ethynyl-2-{[4-(4-methylpiperazin-1-yl)phenyl]amino}pyrido[2,3-d]pyrimidin-7-yl)-4-(methoxymethyl)-1,3-oxazolidin-2-one]
< 0.5	< 0.02	< 0.5	1 to 3	< 1	C#Cc1cc(NC(=O)NC2CCCC2)nc2nc(Nc3cccc(N(C)[C@H]4C[C@H](CS(C)(=O)=O)C4)c3)ncc12 [Example 122]
< 0.5	0.02 to 0.1	0.5 to 1	> 3	< 1	C#Cc1cc(N2C(=O)NCC2C2CCCC2)nc2nc(Nc3ccc(N4CCN(C)CC4)cc3)ncc12 (stereo not shown) [Example 124, 5-Cyclopentyl-1-(5-ethynyl-2-{[4-(4-methylpiperazin-1-yl)phenyl]amino}pyrido[2,3-d]pyrimidin-7-yl)imidazolidin-2-one]
